Test results reported in paper PMC6697720, “Saturation of acyl chains converts cardiolipin from an antagonist to an activator of Toll-like receptor-4” (Cellular and Molecular Life Sciences: CMLS, 2019).

Key:
[1] = target: T1, human TLR4/MD2/CD14 (Homo sapiens, UniProt O00206+Q9Y6Y9); assay: Inhibition of LPS-induced NF-κB luciferase reporter in HEK293 cells transfected with human TLR4/MD2/CD14; type: cell-based; details: for inhibition of LPS-induced signaling (LPS dose-response, 0 to 1000 ng/mL), mode of action: 1 h CL pre-incubation
T1 construct: expressed in transfected cells; host or cells: HEK293 (ATCC CRL1573), transient transfection with jetPEI
T1 sequence (O00206 24-839): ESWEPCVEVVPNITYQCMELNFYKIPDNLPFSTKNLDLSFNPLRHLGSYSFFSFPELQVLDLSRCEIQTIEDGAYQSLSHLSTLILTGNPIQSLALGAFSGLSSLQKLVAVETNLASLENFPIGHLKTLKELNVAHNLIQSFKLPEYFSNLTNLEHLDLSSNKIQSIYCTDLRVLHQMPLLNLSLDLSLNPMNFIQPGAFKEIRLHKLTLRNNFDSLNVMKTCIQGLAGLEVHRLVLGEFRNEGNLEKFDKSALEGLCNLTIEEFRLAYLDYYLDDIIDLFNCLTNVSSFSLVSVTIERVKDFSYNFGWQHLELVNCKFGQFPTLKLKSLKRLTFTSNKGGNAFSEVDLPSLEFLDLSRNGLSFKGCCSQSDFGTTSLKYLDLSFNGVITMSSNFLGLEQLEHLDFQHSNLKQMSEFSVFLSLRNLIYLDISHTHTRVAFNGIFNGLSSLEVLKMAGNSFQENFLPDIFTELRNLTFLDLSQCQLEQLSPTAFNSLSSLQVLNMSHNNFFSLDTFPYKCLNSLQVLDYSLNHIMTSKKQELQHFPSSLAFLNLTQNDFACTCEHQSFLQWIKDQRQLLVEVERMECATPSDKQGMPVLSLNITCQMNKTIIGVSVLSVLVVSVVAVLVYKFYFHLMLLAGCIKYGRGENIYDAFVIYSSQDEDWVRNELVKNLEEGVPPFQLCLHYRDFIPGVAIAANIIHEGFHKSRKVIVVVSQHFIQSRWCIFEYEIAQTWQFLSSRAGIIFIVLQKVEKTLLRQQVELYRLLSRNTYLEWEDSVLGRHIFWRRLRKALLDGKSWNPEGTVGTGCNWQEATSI
T1 sequence (Q9Y6Y9 19-160): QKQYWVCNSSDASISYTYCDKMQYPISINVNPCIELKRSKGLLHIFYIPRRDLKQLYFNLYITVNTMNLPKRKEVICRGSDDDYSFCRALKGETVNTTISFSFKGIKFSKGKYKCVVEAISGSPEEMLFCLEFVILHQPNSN
Experimental: (§1) Cells were seeded at 4 × 10^4 cells/mL in 96-well plates (200 μL/well) and transiently transfected 4 days later. Expression vectors containing an NF-κB transcription reporter vector-encoding firefly luciferase (10 ng/well pNF-κB-luc from Clontech), and a constitutively active reporter vector-encoding Renilla luciferase (5 ng/well phRG-TK; Promega), together with empty vector (pcDNA3.1 from Invitrogen Cat. N. V79020) and cDNA encoding human membrane CD14 (3 ng/well) and human or murine TLR4 and MD2 (3 ng/well) were mixed with jetPEI (Polyplus transfection Cat.N. 101-10N) and incubated with cells according to the manufacturer’s instructions.
(§2) After treatment supernatants were discarded, cells were washed with PBS and lysed with passive lysis buffer (Promega Cat.N. E1941). Luciferase and Renilla activity on cell lysates were quantified on a BioTek Synergy HT microplate reader using home-made luciferase reagent (20 mM Tricine, 2.67 mM MgSO4·7H2O, 0.265 mM (MgCO3)4Mg(OH)2·5H2O, 0.1 mM EDTA, 33.3 mM DTT, 530 μM ATP, 270 μM Acetyl Coenzyme A (Lithium salt), 470 μM luciferin (Biosynth), pH 7.8, diluted two times in water before use), or coelenterazine (Biosynth) dissolved in ethanol at 1 mg/mL and diluted 500 times in PBS before use as previously described. Firefly and Renilla luciferase activity on cell lysates were normalized, and data were expressed as fold induction as compared to unstimulated conditions.
In contrast to C16:0 and C18:0, C14:0 CL acted as an agonist in murine but not human cells (Fig. 3), a property similar to that of the LPS variant lipid IVa. to establish whether C14:0, like lipid IVa, is a weak human TLR4 antagonist, we tested the ability of all saturated CLs to inhibit signaling induced by LPS over a range of concentrations. For each CL, cells transfected with human TLR4/MD2/CD14 were pre-incubated with medium alone or two different CL concentrations for 1 h, and then washed and incubated for 6 h with increasing amounts of LPS (from 0 to 1000 ng/mL). […] The dose–response curve of LPS was shifted to the right.
(§3) Fig. 6 C14:0 is a competitive human TLR4 antagonist. HEK293 cells were transfected with plasmids encoding hTLR4, hMD2, and hCD14 together with a luciferase reporter plasmid dependent on NF-κB activation and a constitutively active reporter vector-encoding renilla luciferase. Two days after transfection, cells were incubated for 1 h with medium alone or the indicated amount of CLs, then washed and incubated 6 h with increasing amount of LPS. Luciferase and renilla were then quantified in cell lysate, and normalized and reported here as fold induction as compared to control. Each bar represents the mean ± standard deviation of three biological replicates (n = 3). Graphs are representative of at least three independent experiments
as §3, with “7 Unsaturated cardiolipins are” for “6 C14:0 is a”, “antagonists.” for “antagonist.”, “CLs, and” for “CLs,”
To quantify and compare the potency of CLs as inhibitors, we determined IC50 values in HEK293 cells transfected with human TLR4/MD2/CD14, for each of the antagonists (Fig. 8 and Table 1). […]

[2] = target: T2, human TLR4, MD2, and CD14 (Homo sapiens, UniProt O00206+Q9Y6Y9); assay: NF-κB luciferase reporter activation by CLs in HEK293 cells transfected with human TLR4, MD2 and CD14; type: cell-based; details: for activation of human TLR4 (NF-κB): 6 h incubation
T2 construct: expressed in transfected cells; host or cells: HEK293 (ATCC CRL1573), transient transfection with jetPEI
T2 sequence (O00206 24-839): as the sequence (O00206 24-839) above
T2 sequence (Q9Y6Y9 19-160): as the sequence (Q9Y6Y9 19-160) above
Experimental: as §1, §2
The first signaling event of these pathways is NF-κB activation through TLR4 activation. To investigate how the individual CD14, TLR4, and MD2 proteins contribute to the responses of cells to CL, we used the HEK transfection model where we can control which protein (including from different species) may be added to the cells and their contribution to CL activation of Nf-κB [21, 30, 31]. We transfected HEK293 cells with human or murine CD14 and MD2 with or without TLR4 and incubated them with saturated CLs for 6 h (Fig. 4a). All three saturated CLs activated murine TLR4. By contrast, only C16:0 and C18:0 activated the human receptor. To further confirm the role of TLR4, we compared TNF-α secretion induced by C14:0 CL in wild-type (WT) or TLR4 knock out (TLR4 KO) immortalized BMDMs. Both LPS and C14:0 CL induced TNF-α secretion in WT but not in TLR4-KO BMDMs (Fig. 4b). TLR4-KO BMDMs were normally responsive to TLR2 ligand Pam3CSK4 (data not shown).
Fig. 4 Saturated CLs are TLR4 agonists. a HEK293 cells were transfected with plasmids encoding murine TLR4, MD2, and CD14 (mTLR4), human TLR4, MD2, and CD14 (hTLR4) or with empty pcDNA3.1 plasmid, MD2 and CD14 (w/o TLR) together with a luciferase reporter plasmid dependent on NF-κB activation and a constitutively active reporter vector-encoding renilla luciferase. Two days after transfection, cells were incubated for 6 h with medium alone (Ctrl) or the indicated amount of CLs or LPS. Luciferase and renilla were quantified in cell lysate, normalized and reported here as fold induction as compared to control. Unpaired t test: differences compared to the control are not significant if p > 0.05(no symbol); *p ≤ 0.005. b WT and TLR4-KO iBMDM cells were incubated overnight with medium (c), LPS or C14:0 CL. For each condition, mTNF-α was measured by ELISA assay. Unpaired t test: differences with respect to the control are not significant if p > 0.05(no symbol); *p ≤ 0.0001. Each bar represents the mean + standard deviation of three biological replicates (n = 3). […]

inhibition of LPS-induced signaling (LPS dose-response, 0 to 1000 ng/mL), mode of action ([1]; washed, 6 h LPS)	activation of human TLR4 (NF-κB) [2]	NF-κB induction in HEK293 cells transfected with TLR4 in the absence of CD14 or MD2 ([2]; hTLR4 without CD14 or without MD2, 6 h)	inhibition of LPS-induced signaling (LPS dose-response, 0 to 1000 ng/mL), mode of action ([1]; washed, 6 h LPS, listed as C14:0)	IC50 ([1]; HEK293 hTLR4/hMD2/hCD14, 1 h CL, washed, 6 h LPS, Prism fit of Fig. 8 data)	IC50 ([1]; approx., HEK293 human TLR4/MD2/CD14)	SMILES
did not inhibit	activated	not induced	–	–	–	CCCCCCCCCCCCCCCCCC(=O)OC[C@H](COP(=O)(O)OCC(O)COP(=O)(O)OC[C@@H](COC(=O)CCCCCCCCCCCCCCCCC)OC(=O)CCCCCCCCCCCCCCCCC)OC(=O)CCCCCCCCCCCCCCCCC (some centres unmarked) [C18:0 CL]
competitive inhibitor	not	–	competitive TLR4 antagonists	~325 µM	~300 µM	CCCCCCCCCCCCCC(=O)OC[C@H](COP(=O)(O)OCC(O)COP(=O)(O)OC[C@@H](COC(=O)CCCCCCCCCCCCC)OC(=O)CCCCCCCCCCCCC)OC(=O)CCCCCCCCCCCCC (some centres unmarked) [C14:0 CL]
